Columns and labels:
Assay in all cases: KinomeScan kinase profiling
Format in all cases: binding
FLT1 = target: T1, FLT1 (Homo sapiens, UniProt P17948)
T1 construct: host or cells: E. coli host derived from BL21, infected with T7 phage
Text: (§1) The kinases were ABL1(F317L), ABL1(H396P), ABL1(Q252H), ABL1(Y253F), ADCK3, ADCK4, ALK, ARK5, AXL, BLK, BRSK2, CDK7, CIT, CLK4, CSNK1D, CSNK1E, DAPK1, DAPK3, DCAMKL3, DMPK, EGFR, EGFR(E746-A750DEL), EGFR(G719C), EGFR(G719S), EGFR(L747-E749DEL, A750P), EGFR(L747-S752 DEL, P753S), EGFR(L747-T751DEL, Sin), EGFR(L858R), EGFR(L861Q), EGFR(S752-I759DEL), EPHA5, EPHA6, ERBB2, ERBB4, ERK3, ERK4, FGR, FLT3(D835H), FLT3(D835Y), FLT3(ITD), FLT3(N841 I), FRK, GAK, GCN2(KIN.DOM.2, S808G), HCK, IRAK3, JAK1(KIN.DOM.1), KIT, KIT(D816V), KIT(V559D), KIT(V559D,T670I), LCK, LOK, LTK, LYN, MAP3K3, MAP4K4, MAP4K5, MET, MINK, MKNK1, MKNK2, MST4, MYLK2, PDGFRB, PIM3, PKN2, PRKD1, PRKD2, PRKD3, PRKG1, RIPK2, RPS6KA4(KIN.DOM.2), SIK2, SLK, SNARK, SRC, STK36, TNIK, TNNI3K, TYK2(KIN.DOM.2).
(§2) Kinase assays: Assays were performed as described in Fabian et al. (2005) Nature Biotechnology, vol. 23, p. 329. Kinase-tagged T7 phage strains were grown in parallel in 24 or 96-well blocks in an E. coli host derived from the BL21 strain. E. coli were grown to log-phase and infected with T7 phage from a frozen stock (multiplicity of infection ˜0.1) and incubated with shaking at 32° C. until lysis (˜90 minutes). The lysates were centrifuged and filtered to remove cell debris. […] The liganded beads were blocked with excess biotin and washed with blocking buffer (SeaBlock (Pierce), 1% BSA, 0.05% Tween 20, 1 mM DTT) to remove unbound ligand and to reduce non-specific phage binding.
(§3) Test compounds were prepared as 40× stocks in DMSO and diluted into the aqueous environment. 2.5% DMSO was added to control assays lacking a test compound. All reactions were performed in polystyrene 96-well plates that had been pretreated with blocking buffer in a final volume of 0.04 ml. […] The phage titer in the eluates was measured by quantitative PCR.

AMPK-alpha1 = target: T2, AMPK-alpha1 (Homo sapiens, UniProt Q13131)
T2 construct: host or cells: E. coli host derived from BL21 (T7 phage lysate)
Text: as §1, §2, §3

[1] = target: T3, EGFR (L747-T751del, Sins) (Homo sapiens, UniProt P00533, DEL747-750/T751S)
T3 construct: host or cells: E. coli host derived from BL21, T7 phage lysate
Text: as §1, §2, §3

AXL = target: T4, AXL (Homo sapiens, UniProt P30530)
T4 construct: purchased Ambit Biosciences Corp (KinomeScan); host or cells: E. coli host derived from the BL21 strain, T7 phage
Text: as §1, §2, §3

[2] = target: T5, EGFR (L747-S752del, P753S) (Homo sapiens, UniProt P00533, DEL747-752/P753S)
T5 construct: purchased Ambit Biosciences Corp (KinomeScan); host or cells: T7 phage in E. coli host derived from BL21
Text: as §1, §2, §3

TAOK3 = target: T6, TAOK3 (Homo sapiens, UniProt Q9H2K8)
T6 construct: host or cells: E. coli host derived from the BL21 strain, T7 phage lysate
Text: as §1, §2, §3

SRC = target: T7, SRC (Homo sapiens, UniProt P12931)
T7 construct: host or cells: E. coli host derived from the BL21 strain, T7 phage lysate
Text: as §1, §2, §3

ITK = target: T8, ITK (Homo sapiens, UniProt Q08881)
T8 construct: host or cells: T7 phage in E. coli host derived from BL21
Text: as §1, §2, §3

BIKE = target: T9, BIKE (Homo sapiens, UniProt Q9NSY1)
T9 construct: purchased Ambit Biosciences Corp (KinomeScan); host or cells: E. coli host derived from the BL21 strain, T7 phage
Text: as §1, §2, §3

AURKB = target: T10, AURKB (Homo sapiens, UniProt Q96GD4)
T10 construct: purchased Ambit Biosciences Corp (KinomeScan); host or cells: E. coli host derived from the BL21 strain, T7 phage
Text: as §1, §2, §3

RAF1 = target: T11, RAF1 (Homo sapiens, UniProt P04049)
T11 construct: host or cells: E. coli host derived from BL21, T7 phage lysate
Text: as §1, §2, §3

MRCKA = target: T12, MRCKA (Homo sapiens, UniProt Q5VT25)
T12 construct: host or cells: T7 phage in E. coli host derived from BL21
Text: as §1, §2, §3

TYRO3 = target: T13, TYRO3 (Homo sapiens, UniProt Q06418)
T13 construct: purchased Ambit Biosciences Corp (KinomeScan); host or cells: E. coli host derived from the BL21 strain (T7 phage lysate)
Text: as §1, §2, §3

KIT (D816V) = target: T14, KIT (D816V) (Homo sapiens, UniProt P10721, D816V)
T14 construct: host or cells: T7 phage in E. coli host derived from BL21
Text: as §1, §2, §3

CAMK1D = target: T15, CAMK1D (Homo sapiens, UniProt Q8IU85)
T15 construct: purchased Ambit Biosciences Corp (KinomeScan); host or cells: E. coli host derived from the BL21 strain, T7 phage
Text: as §1, §2, §3

ERK4 = target: T16, ERK4 (Homo sapiens, UniProt P31152)
T16 construct: host or cells: E. coli host derived from BL21, T7 phage lysate
Text: as §1, §2, §3

WEE2 = target: T17, WEE2 (Homo sapiens, UniProt P0C1S8)
T17 construct: purchased Ambit Biosciences Corp (KinomeScan); host or cells: E. coli host derived from the BL21 strain (T7 phage lysate)
Text: as §1, §2, §3

TNK1 = target: T18, TNK1 (Homo sapiens, UniProt Q13470)
T18 construct: purchased Ambit Biosciences Corp (KinomeScan); host or cells: E. coli host derived from the BL21 strain (T7 phage lysate)
Text: as §1, §2, §3

LATS1 = target: T19, LATS1 (Homo sapiens, UniProt O95835)
T19 construct: host or cells: T7 phage in E. coli host derived from BL21
Text: as §1, §2, §3

[3] = target: T20, JAK1 (JH1domain-catalytic) (Homo sapiens, UniProt P23458)
T20 construct: JAK1 (JH1domain-catalytic); host or cells: T7 phage in E. coli host derived from BL21
Text: as §1, §2, §3

YANK3 = target: T21, YANK3 (Homo sapiens, UniProt Q86UX6)
T21 construct: purchased Ambit Biosciences Corp (KinomeScan); host or cells: E. coli host derived from the BL21 strain (T7 phage lysate)
Text: as §1, §2, §3

PRKD3 = target: T22, PRKD3 (Homo sapiens, UniProt O94806)
T22 construct: purchased Ambit Biosciences Corp (KinomeScan); host or cells: E. coli host derived from BL21, infected with T7 phage
Text: as §1, §2, §3

T12 sequence (Q5VT25 whole entry): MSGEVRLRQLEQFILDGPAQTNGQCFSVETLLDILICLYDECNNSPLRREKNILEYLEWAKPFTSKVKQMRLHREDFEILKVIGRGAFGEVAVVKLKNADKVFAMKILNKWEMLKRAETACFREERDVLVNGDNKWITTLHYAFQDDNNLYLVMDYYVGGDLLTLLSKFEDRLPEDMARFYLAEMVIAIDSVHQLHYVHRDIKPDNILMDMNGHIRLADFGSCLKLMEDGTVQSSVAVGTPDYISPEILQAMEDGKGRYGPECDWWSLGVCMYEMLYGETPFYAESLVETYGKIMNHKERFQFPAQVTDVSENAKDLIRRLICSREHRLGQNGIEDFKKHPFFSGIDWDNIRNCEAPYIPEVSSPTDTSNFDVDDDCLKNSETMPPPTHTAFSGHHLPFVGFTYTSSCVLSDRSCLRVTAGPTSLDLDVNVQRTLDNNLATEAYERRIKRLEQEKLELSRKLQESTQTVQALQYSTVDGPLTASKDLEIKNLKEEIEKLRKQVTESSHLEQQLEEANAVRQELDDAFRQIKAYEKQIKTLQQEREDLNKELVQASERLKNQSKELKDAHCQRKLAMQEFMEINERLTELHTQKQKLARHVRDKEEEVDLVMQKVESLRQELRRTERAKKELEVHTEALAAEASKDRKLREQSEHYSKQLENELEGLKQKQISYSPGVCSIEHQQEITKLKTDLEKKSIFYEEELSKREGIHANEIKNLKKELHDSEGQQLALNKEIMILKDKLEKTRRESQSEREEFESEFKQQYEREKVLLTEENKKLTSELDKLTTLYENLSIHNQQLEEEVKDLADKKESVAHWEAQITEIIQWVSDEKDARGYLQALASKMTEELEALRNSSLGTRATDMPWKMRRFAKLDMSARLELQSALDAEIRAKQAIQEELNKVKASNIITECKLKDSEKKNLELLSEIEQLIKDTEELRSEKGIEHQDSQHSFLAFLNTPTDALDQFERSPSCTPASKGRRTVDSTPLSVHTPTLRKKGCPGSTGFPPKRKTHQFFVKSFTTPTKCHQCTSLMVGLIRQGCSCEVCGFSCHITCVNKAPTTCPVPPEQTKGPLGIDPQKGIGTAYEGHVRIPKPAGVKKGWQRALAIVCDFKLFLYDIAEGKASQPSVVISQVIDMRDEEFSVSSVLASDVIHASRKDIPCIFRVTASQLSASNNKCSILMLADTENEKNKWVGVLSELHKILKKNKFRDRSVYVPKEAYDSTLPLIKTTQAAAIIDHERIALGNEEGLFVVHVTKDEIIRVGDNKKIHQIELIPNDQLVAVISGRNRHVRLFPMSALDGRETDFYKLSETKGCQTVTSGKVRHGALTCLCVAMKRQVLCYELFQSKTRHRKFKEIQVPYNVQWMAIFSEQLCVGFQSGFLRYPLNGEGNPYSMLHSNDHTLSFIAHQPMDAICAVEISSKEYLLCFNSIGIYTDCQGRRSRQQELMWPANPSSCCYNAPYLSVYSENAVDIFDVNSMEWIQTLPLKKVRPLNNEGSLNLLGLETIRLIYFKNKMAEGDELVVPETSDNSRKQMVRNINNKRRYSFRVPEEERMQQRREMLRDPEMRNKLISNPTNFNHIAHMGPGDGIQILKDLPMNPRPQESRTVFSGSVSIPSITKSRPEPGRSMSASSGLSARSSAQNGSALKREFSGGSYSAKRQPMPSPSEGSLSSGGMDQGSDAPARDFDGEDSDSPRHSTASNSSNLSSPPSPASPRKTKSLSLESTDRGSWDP
T17 sequence (P0C1S8 whole entry): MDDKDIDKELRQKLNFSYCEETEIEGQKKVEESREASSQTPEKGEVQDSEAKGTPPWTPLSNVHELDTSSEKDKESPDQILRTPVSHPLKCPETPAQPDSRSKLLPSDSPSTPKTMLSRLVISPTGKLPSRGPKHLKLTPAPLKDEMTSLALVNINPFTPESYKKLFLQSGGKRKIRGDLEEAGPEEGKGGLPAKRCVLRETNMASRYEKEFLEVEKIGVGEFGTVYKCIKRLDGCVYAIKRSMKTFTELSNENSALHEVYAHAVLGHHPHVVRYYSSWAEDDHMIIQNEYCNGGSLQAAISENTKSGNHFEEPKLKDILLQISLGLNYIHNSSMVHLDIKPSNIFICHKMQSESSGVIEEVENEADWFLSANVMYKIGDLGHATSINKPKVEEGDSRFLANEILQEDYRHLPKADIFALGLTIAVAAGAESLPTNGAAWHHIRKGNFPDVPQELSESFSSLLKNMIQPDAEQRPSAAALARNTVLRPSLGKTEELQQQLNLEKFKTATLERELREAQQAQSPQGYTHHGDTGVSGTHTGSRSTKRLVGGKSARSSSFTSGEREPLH
T13 sequence (Q06418 41-890): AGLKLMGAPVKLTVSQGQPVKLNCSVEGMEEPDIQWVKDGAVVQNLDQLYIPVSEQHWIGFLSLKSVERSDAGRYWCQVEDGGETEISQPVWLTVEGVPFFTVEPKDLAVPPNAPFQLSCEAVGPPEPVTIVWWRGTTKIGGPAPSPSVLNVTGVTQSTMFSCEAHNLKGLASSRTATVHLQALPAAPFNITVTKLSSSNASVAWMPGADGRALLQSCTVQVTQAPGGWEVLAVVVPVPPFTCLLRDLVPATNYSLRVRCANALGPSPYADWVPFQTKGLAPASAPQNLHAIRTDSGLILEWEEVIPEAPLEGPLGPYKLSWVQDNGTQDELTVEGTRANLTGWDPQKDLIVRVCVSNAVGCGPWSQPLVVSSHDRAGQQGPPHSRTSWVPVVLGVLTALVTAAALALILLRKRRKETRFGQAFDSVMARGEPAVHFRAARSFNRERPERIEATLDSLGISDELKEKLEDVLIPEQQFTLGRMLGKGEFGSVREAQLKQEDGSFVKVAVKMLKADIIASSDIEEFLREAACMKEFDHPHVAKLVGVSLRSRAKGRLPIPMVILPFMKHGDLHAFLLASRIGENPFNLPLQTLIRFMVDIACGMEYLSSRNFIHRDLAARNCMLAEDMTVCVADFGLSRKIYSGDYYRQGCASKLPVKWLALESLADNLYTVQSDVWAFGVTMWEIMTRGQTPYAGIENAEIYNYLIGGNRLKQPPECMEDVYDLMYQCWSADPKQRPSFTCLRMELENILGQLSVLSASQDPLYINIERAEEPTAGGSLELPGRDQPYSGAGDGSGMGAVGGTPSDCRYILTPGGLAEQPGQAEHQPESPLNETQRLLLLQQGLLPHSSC
T6 sequence (Q9H2K8 whole entry): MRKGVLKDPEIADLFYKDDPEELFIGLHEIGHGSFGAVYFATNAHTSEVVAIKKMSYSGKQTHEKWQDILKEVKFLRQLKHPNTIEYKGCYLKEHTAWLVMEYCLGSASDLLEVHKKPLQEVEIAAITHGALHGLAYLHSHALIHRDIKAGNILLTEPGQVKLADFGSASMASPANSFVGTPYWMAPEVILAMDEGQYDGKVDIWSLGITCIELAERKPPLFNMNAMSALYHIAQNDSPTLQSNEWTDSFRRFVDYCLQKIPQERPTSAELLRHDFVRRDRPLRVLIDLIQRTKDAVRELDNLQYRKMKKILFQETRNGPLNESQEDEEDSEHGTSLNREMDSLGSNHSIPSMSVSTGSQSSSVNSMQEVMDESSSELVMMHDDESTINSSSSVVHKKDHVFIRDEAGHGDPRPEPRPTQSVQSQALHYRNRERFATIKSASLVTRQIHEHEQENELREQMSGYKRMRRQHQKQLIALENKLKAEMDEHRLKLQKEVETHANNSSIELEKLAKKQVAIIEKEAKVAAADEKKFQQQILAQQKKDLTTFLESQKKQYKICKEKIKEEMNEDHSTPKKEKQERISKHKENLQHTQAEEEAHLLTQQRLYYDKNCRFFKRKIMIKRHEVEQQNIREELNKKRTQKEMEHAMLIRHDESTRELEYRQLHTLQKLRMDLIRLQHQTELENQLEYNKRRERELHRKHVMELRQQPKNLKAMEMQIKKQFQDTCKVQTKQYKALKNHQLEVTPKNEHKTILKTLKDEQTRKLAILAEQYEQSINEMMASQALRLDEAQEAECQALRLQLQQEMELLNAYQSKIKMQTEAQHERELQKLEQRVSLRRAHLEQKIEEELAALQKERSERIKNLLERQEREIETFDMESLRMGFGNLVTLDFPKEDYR
T10 sequence (Q96GD4 whole entry): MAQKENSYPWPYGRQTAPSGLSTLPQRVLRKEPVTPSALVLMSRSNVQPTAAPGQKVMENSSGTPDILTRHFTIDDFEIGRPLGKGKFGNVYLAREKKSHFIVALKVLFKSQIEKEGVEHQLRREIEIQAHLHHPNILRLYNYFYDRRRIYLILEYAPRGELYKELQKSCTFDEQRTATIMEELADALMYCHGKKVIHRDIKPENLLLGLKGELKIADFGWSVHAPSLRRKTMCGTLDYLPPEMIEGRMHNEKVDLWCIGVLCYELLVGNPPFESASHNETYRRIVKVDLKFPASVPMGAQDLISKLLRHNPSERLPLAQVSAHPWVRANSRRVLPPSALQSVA
T7 sequence (P12931 whole entry): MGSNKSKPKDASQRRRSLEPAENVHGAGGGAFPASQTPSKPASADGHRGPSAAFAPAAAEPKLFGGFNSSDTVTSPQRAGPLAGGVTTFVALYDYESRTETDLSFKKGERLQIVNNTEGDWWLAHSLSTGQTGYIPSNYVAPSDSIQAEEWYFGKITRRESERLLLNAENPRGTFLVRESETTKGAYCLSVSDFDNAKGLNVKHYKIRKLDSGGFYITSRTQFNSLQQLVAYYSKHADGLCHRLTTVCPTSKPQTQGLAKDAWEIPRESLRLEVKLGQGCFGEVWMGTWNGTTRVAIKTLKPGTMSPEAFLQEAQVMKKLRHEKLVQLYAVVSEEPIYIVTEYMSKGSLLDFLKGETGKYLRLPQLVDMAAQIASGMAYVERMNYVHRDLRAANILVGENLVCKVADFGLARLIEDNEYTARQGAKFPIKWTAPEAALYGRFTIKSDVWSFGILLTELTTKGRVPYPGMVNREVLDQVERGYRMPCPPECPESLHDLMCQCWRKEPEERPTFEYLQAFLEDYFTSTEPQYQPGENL

C#Cc1cccc(Nc2ncnc3cc(OC)c(OCCCN4CCOCC4)cc23)c1 [NRC-2694, N-(3-ethylnylphenyl)-7-methoxy-6-[3-(4-morpholinyl)propoxy]-4-quinazolinamine]
% Ctrl @ 10000 nM (FLT1): 64 % Ctrl | % Ctrl @ 10000 nM (AMPK-alpha1): 50 % Ctrl | % Ctrl @ 10000 nM [1]: 0 % Ctrl | % Ctrl @ 10000 nM (AXL): 25 % Ctrl | % Ctrl @ 10000 nM [2]: 0.1 % Ctrl | % Ctrl @ 10000 nM (TAOK3): 76 % Ctrl | % Ctrl @ 10000 nM (SRC): 24 % Ctrl | % Ctrl @ 10000 nM (ITK): 82 % Ctrl | % Ctrl @ 10000 nM (BIKE): 36 % Ctrl | % Ctrl @ 10000 nM (AURKB): 56 % Ctrl | % Ctrl @ 10000 nM (RAF1): 100 % Ctrl | % Ctrl @ 10000 nM (MRCKA): 81 % Ctrl | % Ctrl @ 10000 nM (TYRO3): 42 % Ctrl | % Ctrl @ 10000 nM (KIT (D816V)): 17 % Ctrl | % Ctrl @ 10000 nM (CAMK1D): 83 % Ctrl | % Ctrl @ 10000 nM (ERK4): 3.7 % Ctrl | % Ctrl @ 10000 nM (WEE2): 53 % Ctrl | % Ctrl @ 10000 nM (TNK1): 41 % Ctrl | % Ctrl @ 10000 nM (LATS1): 91 % Ctrl | % Ctrl @ 10000 nM [3]: 15 % Ctrl | % Ctrl @ 10000 nM (YANK3): 100 % Ctrl | % Ctrl @ 10000 nM (PRKD3): 7.2 % Ctrl

Reference: patent US9050341B2, “Methods of treating drug resistant and other tumors by administering 6,7-dialkoxy quinazoline derivatives” (NATCO PHARMA LIMITED, priority 2009, dated 2015)
